We go through ten compounds from patent US20040097574A1, “Glucocorticoid mimetics, methods of making them, pharmaceutical compositions, and uses thereof” (Boehringer Ingelheim Pharmaceuticals, Inc., priority 2002, published 2004).

The target in test [1] is T1, human glucocorticoid receptor (GR) complex (Homo sapiens, UniProt P04150).
T1 construct: made in house; host or cells: insect expression system (baculovirus lysate)
T1 sequence (P04150 1-777): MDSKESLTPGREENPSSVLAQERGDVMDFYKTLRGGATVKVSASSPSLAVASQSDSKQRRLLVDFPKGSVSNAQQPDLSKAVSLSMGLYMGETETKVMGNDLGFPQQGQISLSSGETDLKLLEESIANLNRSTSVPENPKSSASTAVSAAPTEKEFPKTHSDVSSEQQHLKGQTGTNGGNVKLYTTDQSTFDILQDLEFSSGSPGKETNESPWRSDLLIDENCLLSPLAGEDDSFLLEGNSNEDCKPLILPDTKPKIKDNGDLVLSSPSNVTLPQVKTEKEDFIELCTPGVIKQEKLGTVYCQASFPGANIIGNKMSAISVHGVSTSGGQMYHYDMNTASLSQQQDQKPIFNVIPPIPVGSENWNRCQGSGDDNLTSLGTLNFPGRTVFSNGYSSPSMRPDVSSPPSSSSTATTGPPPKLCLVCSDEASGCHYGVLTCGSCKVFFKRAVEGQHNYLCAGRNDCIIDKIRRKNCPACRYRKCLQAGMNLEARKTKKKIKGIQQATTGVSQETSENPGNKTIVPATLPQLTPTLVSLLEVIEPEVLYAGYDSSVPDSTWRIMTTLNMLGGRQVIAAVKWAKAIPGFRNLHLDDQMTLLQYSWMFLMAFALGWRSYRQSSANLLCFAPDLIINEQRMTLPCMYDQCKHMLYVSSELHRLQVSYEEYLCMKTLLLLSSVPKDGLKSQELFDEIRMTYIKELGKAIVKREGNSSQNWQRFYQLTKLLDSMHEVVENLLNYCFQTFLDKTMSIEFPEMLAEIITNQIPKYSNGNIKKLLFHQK
Briefly: Glucocorticoid receptor competitive binding assay (fluorescence polarization). To be noted: competition with TAMRA-labeled dexamethasone; read-out: potent activity in the GR binding assay (IC50). The method, then:
Compounds of the invention were evaluated for binding to the steroid receptor by a fluorescence polarization competitive binding assay. Detailed descriptions for preparation of recombinant glucocorticoid receptor (GR) complex used in the assay is described in U.S. Patent Application Publication No. US 2003/0017503, filed May 20, 2002, and the corresponding U.S. provisional application No. 60/291,877, filed May 18, 2001, each of which is incorporated herein by reference in its entirety. Preparation of the tetramethyl rhodamine (TAMRA)-labeled dexamethasone probe was accomplished using a standard literature procedure (M. Pons et al., J. Steroid Biochem., 1985, 22, pp. 267-273).
A. Glucocorticoid Receptor Competitive Binding Assay
Step 1. Characterization of the Fluorescent Probe
The wavelengths for maximum excitation and emission of the fluorescent probe should first be measured. An example of such a probe is rhodamine (TAMRA)-labeled dexamethasone.
The affinity of the probe for the steroid receptor was then determined in a titration experiment. The fluorescence polarization value of the probe in assay buffer was measured on an SLM-8100 fluorometer using the excitation and emission maximum values described above. Aliquots of expression vector lysate were added and fluorescence polarization was measured after each addition until no further change in polarization value was observed. Non-linear least squares regression analysis was used to calculate the dissociation constant of the probe from the polarization values obtained for lysate binding to the probe.
Step 2. Screening for Inhibitors of Probe Binding
This assay uses fluorescence polarization (FP) to quantitate the ability of test compounds to compete with tetramethyl rhodamine (TAMRA)-labeled dexamethasone for binding to a human glucocorticoid receptor (GR) complex prepared from an insect expression system. The assay buffer was: 10 mM TES, 50 mM KCl, 20 mM Na2MoO4.2H2O, 1.5 mM EDTA, 0.04% w/v CHAPS, 10% v/v glycerol, 1 mM dithiothreitol, pH 7.4. Test compounds were dissolved to 1 mM in neat DMSO and then further diluted to 10x assay concentration in assay buffer supplemented with 10% v/v DMSO. Test compounds were serially diluted at 10x assay concentrations in 10% DMSO-containing buffer in 96-well polypropylene plates. Binding reaction mixtures were prepared in 96-well black Dynex microtiter plates by sequential addition of the following assay components to each well: 15 μL of 10x test compound solution, 85 μL of GR-containing baculovirus lysate diluted 1:170 in assay buffer, and 50 μL of 15 nM TAMRA-labeled dexamethasone. Positive controls were reaction mixtures containing no test compound; negative controls (blanks) were reaction mixtures containing 0.7 μM to 2 μM dexamethasone. The binding reactions were incubated for 1 hour at room temperature and then read for fluorescence polarization in the LJL Analyst set to 550 nm excitation and 580 nm emission, with the Rhodamine 561 dichroic mirror installed. IC50 values were determined by iterative non-linear curve fitting of the FP signal data to a 4-parameter logistic equation.
In general terms: Polarisation of emitted light reports the rotation of a fluorescent probe.

The subject of test [2] is glucocorticoid receptor function. Briefly: Glucocorticoid receptor function, one or more of the above assays (agonist/antagonist/modulator activity). To be noted: in one or more of the above assays. Format: cell-based. The method, then:
B. Glucocorticoid Receptor Cell Assays
1. Induction of Aromatase in Fibroblasts (Cell Assay for Transactivation)
Dexamethasone, a synthetic ligand to the glucocorticoid receptor (GR), induces expression of aromatase in human foreskin fibroblast cells. The activity of aromatase is measured by the conversion of testosterone to estradiol in culture media.
On the day of the experiment, the media in the wells is replaced with fresh media. Cells are treated with test compounds to final concentrations of 10^−5 M to 10^−8 M, and testosterone to a final concentration of 300 ng/mL. Each well has a total volume of 100 μL. Samples are made in duplicates. Control wells include: (a) wells that receive testosterone only, and (b) wells that receive testosterone plus 2 μM of dexamethasone to provide maximum induction of aromatase. Plates are incubated at 37° C. overnight (15 to 18 hours), and supernatants are harvested at the end of incubation. […] The amount of estradiol is inversely proportional to the ELISA signals in each well. The extent of aromatase induction by test compounds is expressed as a relative percentage to dexamethasone. EC50 values of test compounds are derived by non-linear curve fitting.
2. Inhibition of IL-6 Production in Fibroblasts (Cell Assay for Transrepression)
Human foreskin fibroblast cells produce IL-6 in response to stimulation by pro-inflammatory cytokine IL-1.
On the next day, media in the wells is replaced with fresh media. Cells are treated with IL-1 (rhIL-1α, R&D Systems Cat. No. 200-LA) to a final concentration of 1 ng/mL, and with test compounds to final concentrations of 10^−5 M to 10^−8 M, in a total volume of 200 μL per well. Samples are done in duplicates. […] Positive control wells receive IL-1 only and represent maximum (or 100%) amount of IL-6 production. Plates are incubated at 37° C. overnight (15 to 18 hours), and supernatants are harvested at the end of incubation. IL-6 levels in the supernatants are determined by the ELISA kits for IL-6 (MedSystems Diagnostics GmbH, Vienna, Austria, Cat. No. BMS213TEN) according to manufacture's instructions. The extent of inhibition of IL-6 by test compounds is expressed in percentage relative to positive controls. IC50 values of test compounds are derived by non-linear curve fitting.
Evaluation of agonist or antagonist activity of compounds binding to the glucocorticoid receptor may be determined by any of the assays.
3. Modulation of Tyrosine Aminotransferase (TAT) Induction in Rat Hepatoma Cells
Testing of compounds for agonist or antagonist activity in induction of tyrosine aminotransferase (TAT) in rat hepatoma cells.
H4-II-E-C3 cells were incubated overnight in 96 well plates (20,000 cells/100 μL/well) in MEM medium containing 10% heat inactivated FBS and 1% nonessential amino acids. On the next day, cells were stimulated with the indicated concentrations of dexamethasone or test compound (dissolved in DMSO, final DMSO concentration 0.2%) for 18 hours. Control cells were treated with 0.2% DMSO. After 18 hours, the cells were lysed in a buffer containing 0.1% Triton X-100 and the TAT activity was measured in a photometric assay using tyrosine and alpha-ketoglutarate as substrates.
For measuring antagonist activity, the hepatoma cells were pre-stimulated by addition of dexamethasone (concentration ranges from 3×10^−9 M to 3×10^−8 M) shortly before the test compound was applied to the cells.
4. Modulation of MMTV-Luc Induction in HeLa Cells
Testing of compounds for agonist or antagonist activity in stimulation of MMTV-(mouse mammary tumor virus) promoter in HeLa cells.
Cells were cultured overnight in DMEM medium without phenol red, supplemented with 3% CCS (charcoal treated calf serum) and then transferred to 96 well plates (15,000 cells/100 μL/well).

As usually defined, the IC50 is the concentration needed to halve the response being measured. `CCC(Cc1c[nH]c2ccccc12)NS(=O)(=O)c1c(Cl)cc(Cl)cc1Cl` (centres unmarked) [2,4,6-Trichloro-N-[1-(1H-indol-3-ylmethyl)propyl]benzenesulfonamide]: the IC50 in test [1] was ≤ 100 nM.

In the case of `CC(Cc1c[nH]c2ccccc12)NS(=O)(=O)c1c(Cl)cc(Cl)cc1Cl` (centres unmarked) [2,4,6-Trichloro-N-[2-(1H-indol-3-yl)-1-methylethyl]benzenesulfonamide], the IC50 in test [1] was ≤ 100 nM. The “activity as antagonists of the glucocorticoid receptor function” value in test [2] is listed as “activity as antagonists”.

Consider `CC(Cc1c[nH]c2ccccc12)NS(=O)(=O)c1c(Cl)cccc1Cl` (centres unmarked) [2,6-Dichloro-N-[2-(1H-indol-3-yl)-1-methylethyl]benzenesulfonamide], for which the “activity as antagonists of the glucocorticoid receptor function” value in test [2] is “activity as antagonists”.

Consider `Cc1cccc(Cl)c1S(=O)(=O)NC(C)Cc1c[nH]c2ccccc12` (centres unmarked) [2-Chloro-N-[2-(1H-indol-3-yl)-1-methylethyl]-6-methylbenzenesulfonamide], for which the “activity as antagonists of the glucocorticoid receptor function” value in test [2] is “activity as antagonists”.

Regarding `CC(Cc1c[nH]c2ccccc12)NS(=O)(=O)c1c(Cl)sc(Cl)c1Br` (centres unmarked) [4-Bromo-2,5-dichlorothiophene-3-sulfonic acid [2-(1H-indol-3-yl)-1-methylethyl]amide], in test [1], the IC50 was ≤ 100 nM. Further, in test [2], the “activity as antagonists of the glucocorticoid receptor function” value was “activity as antagonists”.

Consider `CCC(Cc1c[nH]c2ccccc12)NS(=O)(=O)c1c(C)cc(C)cc1C` (centres unmarked) [N-[1-(1H-Indol-3-ylmethyl)propyl]-2,4,6-trimethylbenzenesulfonamide], for which, in test [1], the concentration for half-maximal inhibition (IC50) is ≤ 100 nM.

As to `CC(Cc1c[nH]c2ccccc12)NS(=O)(=O)c1c(C(C)C)cc(C(C)C)cc1C(C)C` (centres unmarked) [N-[2-(1H-Indol-3-yl)-1-methylethyl]-2,4,6-triisopropylbenzenesulfonamide], the 50% inhibitory concentration (IC50) in test [1] is ≤ 100 nM. In addition, the “activity as antagonists of the glucocorticoid receptor function” value in test [2] is on record as “activity as antagonists”.

As for `Cc1cc(C)c(S(=O)(=O)NC(C)Cc2c[nH]c3ccccc23)c(C)c1` (centres unmarked) [N-[2-(1H-Indol-3-yl)-1-methylethyl]-2,4,6-trimethylbenzenesulfonamide], the concentration for half-maximal inhibition (IC50) in test [1] is ≤ 100 nM. Also, the “activity as an agonist of the glucocorticoid receptor function” value in test [2] is “activity as an agonist”.

Regarding `Cc1cc(C)c(S(=O)(=O)NC(C)Cc2c[nH]c3ccc(F)cc23)c(C)c1` (centres unmarked) [N-[2-(5-Fluoro-1H-indol-3-yl)-1-methylethyl]-2,4,6-trimethylbenzenesulfonamide], the IC50 in test [1] is ≤ 100 nM.

Regarding `Cc1cc(C)c(S(=O)(=O)NC(C)Cc2c[nH]c3cc(F)ccc23)c(C)c1` (centres unmarked) [N-[2-(6-Fluoro-1H-indol-3-yl)-1-methylethyl]-2,4,6-trimethylbenzenesulfonamide], the IC50 in test [1] was ≤ 100 nM.
